Experimental data published in US20230013419A1, “ANALOGUES OF 3-(5-METHYL-1,3-THIAZOL-2-YL)-N-{(1R)-1-[2-(TRIFLUORO-METHYL)PYRIMIDIN-5-YL]ETHYL}BENZAMIDE” (Bayer Aktiengesellschaft, priority 2019, published 2023).
In brackets after ≈: the same amount, converted by molar mass. Several values for one entry are separate records, joined by “and”; a condition that tells them apart may be missing. Equal values may be shown once.

Tests used:
[1] = In vitro metabolic stability in human liver microsomes; type: in vitro ADME; conditions: for CLblood: hepatic in vivo blood clearance calculated from half-life in human liver microsomes, 1 μM, well-stirred model; for metabolic stability compared to example 11 of WO2016/091776 A1: human liver microsomes; for Fmax: maximal oral bioavailability calculated from human liver microsome clearance
Method: Examples were tested for its metabolic stability in human liver microsomes. Examples were measured one or more times. When measured more than once, data from metabolic stability assays represent average values or median values calculated utilizing data sets obtained from testing of one or more synthetic batch.
In vitro metabolic stability was determined by incubating a solution of test compounds in dimethylsulfoxide (DMSO) and acetonitrile at 1 μM in a suspension of liver microsomes in 100 mM phosphate buffer, pH7.4 (NaH2PO4×H2O+Na2HPO4×2H2O) and at a protein concentration of 0.5 mg/mL at 37° C. The microsomes were activated by adding a co-factor mix containing 8 mM Glucose-6-Phosphat, 4 mM MgCl2; 0.5 mM NADP and 1 IU/ml G-6-P-Dehydrogenase in phosphate buffer, pH 7.4. The metabolic assay was started shortly afterwards by adding the test compound to the incubation at a final volume of 1 mL. Organic solvent was limited to ≤0.01% dimethylsulfoxide (DMSO) and ≤1% acetonitril. During incubation, the microsomal suspensions were continuously shaken at 580 rpm and aliquots were taken at 2, 8, 16, 30, 45 and 60 min, to which equal volumes of cold methanol were immediately added. Samples were frozen at −20° C. over night, subsequently centrifuged for 15 minutes at 3000 rpm and the supernatant was analyzed with an Agilent 1200 HPLC-system with LCMS/MS detection.
The half-life of a test compound was determined from the concentration-time plot. From the half-life the intrinsic clearances were calculated. Together with the additional parameters liver blood flow, specific liver weight and microsomal protein content the hepatic in vivo blood clearance (CL) and the maximal oral bioavailability (Fmax) were calculated for the different species. The hepatic in vivo blood clearance (CLblood) and the maximal oral bioavailability (Fmax) was calculated using the following formulae: CL′intrinsic [ml/(min*kg)]=kel [1/min]/((mg protein/volume of incubation [ml])*fu,inc)*(mg protein/liver weight [g])*(specific liver weight [g liver/kg body weight]); CLblood well-stirred [L/(h*kg)]=(QH [L/(h*kg)]*fu,blood*CL′intrinsic [L/(h*kg)])/(QH [L/(h*kg)]+fu,blood*CL′intrinsic [L/(h*kg)]); Fmax=1−CLblood/QH and using the following parameter values: QH (Liver blood flow): 1.32 L/h/kg (human), 2.1 L/h/kg (dog), 4.2 L/h/kg (rat); specific liver weight: 21 g/kg (human), 39 g/kg (dog), 32 g/kg (rat); microsomal protein content: 40 mg/g. fu,inc and fu,blood is taken as 1 with fu,inc being the unbound fraction (ie the non-protein bound fraction) in the incubation experiment, and fu,blood being the unbound fraction in blood.

[2] = target: T1, human P2X3 receptor (Homo sapiens, UniProt P56373); test: Cellular in vitro assay for determination of P2X3 receptor activity (CHO cells, photina luminescence, agonist alpha-beta-methylene-ATP); type: cell-based; conditions: antagonist activity at human P2X3 receptors, recombinant CHO cells, alpha-beta-methylene-ATP at EC50; read-out: Target IC50
T1 construct: expressed in transfected cells; host or cells: CHO (Chinese hamster ovary) cells, stably co-transfected with mitochondrial photina
T1 sequence (P56373 1-397): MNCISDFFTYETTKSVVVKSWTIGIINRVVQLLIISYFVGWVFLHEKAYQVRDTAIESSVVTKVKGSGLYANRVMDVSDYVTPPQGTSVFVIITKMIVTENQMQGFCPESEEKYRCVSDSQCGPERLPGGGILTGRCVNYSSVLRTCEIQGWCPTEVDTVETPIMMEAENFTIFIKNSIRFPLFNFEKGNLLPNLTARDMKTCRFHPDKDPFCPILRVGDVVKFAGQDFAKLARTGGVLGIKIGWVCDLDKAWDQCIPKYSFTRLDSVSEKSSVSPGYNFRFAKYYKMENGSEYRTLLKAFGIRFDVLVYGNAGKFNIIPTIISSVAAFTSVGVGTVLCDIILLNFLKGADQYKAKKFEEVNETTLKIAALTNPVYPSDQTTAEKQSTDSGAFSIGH
Method: Cellular In Vitro Assay for Determination of P2X3 Receptor Activity
The determination of antagonistic activity at the P2X3 receptor of the compounds of the invention was performed by use of a recombinant cell line. These cell line derives originally from the Chinese hamster ovary (CHO) cell line (Tjio J. H.; Puck T. T., 1958, J. Exp. Med. 108: 259-271). The cell line is stably transfected with the human P2X3 receptor and a calcium-sensitive photoprotein, mitochondrial photina, which, after reconstitution with the cofactor coelenterazine, emits light in dependence of calcium binding [Bovolenta S, Foti M, Lohmer S, Corazza S., J Biomol Screen. 2007 August; 12(5):694-704]. The strength of the photina luminescence signal corresponds to the level of receptor activation upon agonist binding. An inhibitor would decrease the signal depending on its potency and concentration. Bioluminescence was detected using a suitable luminometer [Milligan G, Marshall F, Rees S, Trends in Pharmacological Sciences 17, 235-237 (1996)].
On the day before the assay, the cells are plated out in culture medium (DMEM/F12 (PAN, P04-41451), 10% FCS) in 384-well microtiter plates and kept in a cell incubator (96% humidity, 5% v/v CO2, […]). On the day of the assay medium is replaced by 2 mM Ca-tyrode buffer (20 mM HEPES, 130 mM NaCl, 5 mM KCl, 5 mM NaHCO3, 2 mM MgCl2, pH 7.4) containing 5 μg/ml coelenterazine. Plates are incubated for 3 hours at 37° C. (96% humidity, 5% v/v CO2). After incubation the test substances in various concentrations are placed for 10 minutes in the wells of the microtiter plate before the agonist alpha-beta-methylene-ATP at EC50 concentration is added. The resulting light signal is measured immediately in the luminometer.
The examples were tested in quadruples per plate and mean values were used to determine IC50 values at the human P2X3 receptors and percentage of maximal inhibition.

[3] = High throughput aqueous solubility in phosphate buffer pH 6.5; type: physicochemical; conditions: for solubility at 24 h: aqueous buffer, kinetic from dmso stock, phosphate buffer pH 6.5, 1% DMSO, 24 hrs at room temperature; for solubility compared to example 11 of WO2016/091776 A1: aqueous, pH 6.5
Method: Examples were tested for its solubility in aqueous media (pH 6.5). Examples were synthesized one or more times in accordance with the above-described protocols. When synthesized more than once, data from solubility assays represent average values or median values calculated utilizing data sets obtained from testing of one or more synthetic batch.
The high throughput screening method to determine aqueous drug solubility is based on Thomas Onofrey and Greg Kazan, Performance and correlation of a 96-well high throughput screening method to determine aqueous drug solubility, Millipore Corporation Application Note, 2003; Lit. No. AN1731EN00.
The assay was run in a 96-well plate format. Each well was filled with an individual compound.
All pipetting steps were performed using a robot platform.
100 μl of a 10 mmolar solution of drug in DMSO were concentrated by vacuum centrifugation and resolved in 10 μl DMSO. 990 μl phosphate buffer pH 6.5 were added. The content of DMSO amounts to 1%. The multititer plate was put on a shaker and mixed for 24 hrs at room temperature. 150 μl of the suspension were transferred to a filtration plate. […] A second microtiter plate with 20 μl of a 10 mM solution of drug in DMSO served for calibration. Two concentrations ([…]) were prepared by dilution in DMSO/water 1:1 and used for calibration. Filtrate and calibration plates were quantified by HPLC-MS/MS.
Chromatographic conditions were as follows:
HPLC column: Ascentis Express C18 4.6×30 mm 2.7 μm
Mobile phase: A: Water/0.05% HCOOH • B: Acetonitrile/0.05% HCOOH • 0 min→95% A 5% B • 0.75 min→5% A 95% B • 2.75 min→5% A 95% B • 2.76 min→95% A 5% B • 3 min→95% A 5% B
The areas of sample- and calibration injections were determined by using mass spectrometry software (AB SCIEX: Discovery Quant 2.1.3. and Analyst 1.6.1). The solubility value was obtained by interpolation from the calibration curve.

Compound	CLblood [1]	metabolic stability compared to example 11 of WO2016/091776 A1 [1]	Fmax [1]	IC50 [2] [nM]	solubility at 24 h [3] [µg/mL]	solubility compared to example 11 of WO2016/091776 A1 [3]
Cc1cnc(-c2cc(O[C@@H](CO)CC(=O)O)cc(C(=O)N[C@H](C)c3cnc(C(F)(F)F)nc3)c2)s1 [Example 3, (3R)-4-hydroxy-3-[3-(5-methyl-1,3-thiazol-2-yl)-5-({(1R)-1-[2-(trifluoromethyl)-pyrimidin-5-yl]ethyl}carbamoyl)phenoxy]butanoic acid]	0.017 mL/min/kg	significantly improved metabolic stability	100%	12	1190 (≈ 2330 µM)	significantly improved solubility
Cc1cnc(-c2cc(O[C@@H]3CCOC3)cc(C(=O)N[C@H](C)c3cnc(C(F)(F)F)nc3)c2)s1 [example 11 of WO2016/091776 A1, 3-(5-Methyl-1,3-thiazol-2-yl)-5-[(3R)-tetrahydrofuran-3-yloxy]-N-{(1R)-1-[2-(trifluoro-methyl)pyrimidin-5-yl]ethyl}benzamide, reference compound]	8.67 mL/min/kg and 4.5 mL/min/kg	–	61% and 79%	–	2.9 (≈ 6.06 µM)	–
Cc1cnc(-c2cc(O[C@@H](CO)CCO)cc(C(=O)N[C@H](C)c3cnc(C(F)(F)F)nc3)c2)s1 [Example 2, 3-{[(2R)-1,4-dihydroxybutan-2-yl]oxy}-5-(5-methyl-1,3-thiazol-2-yl)-N-{(1R)-1-[2-(trifluoromethyl)pyrimidin-5-yl]ethyl}benzamide]	0.017 mL/min/kg	significantly improved metabolic stability	100%	5.1	96.5 (≈ 194 µM)	significantly improved solubility
{[(3R,5R)-5-Hydroxytetrahydrofuran-3-yl]oxy}-5-(5-methyl-1,3-thiazol-2-yl)-N-{(1R)-1-[2-(trifluoromethyl)pyrimidin-5-yl]ethyl}benzamide and {[(3R,5S)-5-hydroxytetrahydrofuran-3-yl]oxy}-5-(5-methyl-1,3-thiazol-2-yl)-N-{(1R)-1-[2-(trifluoromethyl)pyrimidin-5-yl]ethyl}benzamide [Example 1]	14.5 mL/min/kg	–	34%	20	–	–
